From patent US8906897B2, “Antimicrobial agents based on hemin derivatives” (Obschestvo S Ogranichennoi Otvetstvennostiyu …, priority 2009, dated 2014)

Key:
[1] = test system: Bacillus subtilis BKM B-501; experiment: Antibacterial activity (MIC/MBC), serial dilutions in liquid MH medium; format: cell-based; conditions: for MIC: 20 h, MH medium
Description: (§1) The antibacterial activity of compounds was determined against Bacillus subtilis BKM B-501, Staphylococcus aureus 209P, Enterococcus faecalis BKM B-871, and Micrococcus luteus BKM Ac-2230 strains (acquired from the All-Russia Collection of Microorganisms at the Institute for Biochemistry and Physiology of Microorganisms, Russian Academy of Sciences). The main parameters characterizing the antibacterial activity are the minimal inhibitory concentration (MIC) and minimal bactericidal concentration (MBC). […] MBC is the least concentration that causes the death of all cells.
(§2) MIC was quantified by inhibiting culture growth in a liquid medium with serial dilutions of compounds using a modified procedure [Amsterdam, D., “Susceptibility Testing of Antimicrobials in Liquid Media,” in Antibiotics in Laboratory Medicine, Ed. by Lorian, V., 4th ed., Baltimore: Williams and Wilkins, 1996, pp. 52-111].
(§3) Bacteria were cultured and tests were carried out on an MH liquid medium (Mueller-Hinton medium: a dry extract of beef broth, 4 g/L; starch, 1.5 g/L; casein hydrolyzate, 17.5 g/L; Sigma-Fluka Catalog No. 70192) at 37° C., 100% humidity, and under stirring. Cultures (4th through 7th receeding post-thawing) in the exponential growth phase were used for tests.
(§4) Therefore, a correction for absorption was applied in estimating the optical density of bacterial suspensions for each compound with account for its concentration in the well.
(§5) The protocol for experimental antibacterial activity determination for tested compounds was as follows. A cryovial with the test strain culture (Bacillus subtilis BKIVI B-501, Staphylococcus aureus 209P, Enterococcus faecalis BKM B-871, or Micrococcus luteus BKIVI Ac-2230) in a medium with 7% DMSO stored in liquid nitrogen, was rapidly defrosted, and 1.5 mL of the fresh MH medium was inoculated with 100 μL of the cell suspension. Cells were grown for one day at 37° C. and stirred on an orbital shaker at 150 rpm. The morphologic features of the strain and the absence of contamination with foreign bacteria were verified by: (a) inoculation on an agarized (15 g/L agar) MH medium and observation of the shape and color of the grown colonies and (b) examination of characteristic morphologic features under a microscope (Mikmed-2, LOMO, Russia) equipped with a 40× objective lens. Further bacteria were cultured in 1 mL of the liquid MH medium at 37° C. under stirring. The cells were reseeded every day. Cell cultures were used in tests starting with 3rd reseeding and ending with 6th one.
(§6) For testing, 5 μL of a bacterial suspension in the stationary growth phase was transferred to 1 mL of a sterile MH medium and incubated until the exponential growth phase was attained (3 to 5 h, 37° C., stirring at 150 rpm). To estimate the microorganisms concentration, the optical density (A) of the resulting bacterial culture was measured at a wavelength of 595 nm. The value of A=0.2 measured from a […] portion of the cell suspension in a 96-well plate, with a correction for the medium absorption applied, was set to correspond to 4×10^8 cells/mL for both strains used. Taking into account the cell concentration measurements, the suspension was diluted with the MH medium to a concentration of from 5×10^4 to 1×10^5 cells/mL and transferred to a sterile 96-well plate in an amount of 100 μL, per well. Then, the cells were added with tested compounds and twofold serial dilutions of these compounds in plate's wells were made.
(§7) The controls used were: 100 μL of an additive-free bacterial culture (four wells); a bacterial culture added with 1% DMSO or water in the same volume as in the wells with the maximal concentration of the tested compounds (four wells); and 100 μL of the sterile MH medium without bacteria and without tested compounds for control of occasional contamination in the plate (four wells).

[2] = test system: Enterococcus faecalis BKM B-871; experiment: as above; format: cell-based; conditions: for MIC: 20 h, MH medium
Description: as §1, §2, §3, §4, §5, §6, §7

[3] = test system: Micrococcus luteus BKM Ac-2230; experiment: as above; format: cell-based; conditions: for MIC: 20 h, MH medium
Description: as §1, §2, §3, §4, §5, §6, §7

[4] = test system: Staphylococcus aureus 209P; experiment: as above; format: cell-based; conditions: for MIC: 20 h, MH medium
Description: as §1, §2, §3, §4, §5, §6, §7

human leukocytes = experiment: Cytotoxic activity against human leukocytes; conditions: for Death of leukocytes in the presence of 1 mM of compound / concentration at which a weak toxic effect on leukocytes appears: 3 h incubation; for toxic effect on human blood leukocytes (in words): concentrations of up to 1 mM, 3 h
Description: Total leukocytes were isolated from human blood by unforced sedimentation using freshly collected venous blood from a healthy donor.
Blood (10 mL) added with 10 units/mL heparin was exposed for 2.5 h in the dark at a temperature of 15 to 18° C. A light-colored liquid supernatant (4 mL) was collected over the layer of sedimenting erythrocytes, washed three times with balanced Hanks's salt solution, and resuspended in the RPMI-1640 medium (added with 8% fetal bovine serum, 2 mM L-glutamine, and 10 mM HEPES; hereinafter, the complete medium).
The concentrations of leukocytes and erythrocytes in the suspension were determined by counts in Goryachev's chamber, after which the suspension was adjusted to a leukocyte concentration of (1.0±0.1)×10^6 cells/mL with the complete medium.
To determine the cytotoxicity of the tested compounds for human leukocytes, the cell suspension was transferred to wells of sterile 96-well plates, tested compounds were added with serial twofold dilutions (the range of tested concentrations was from 3.2 to 100 μM for GrD and gramicidin S; from 8 to 500 μM for compound XIII; and from 8 to 1000 μM for compounds V, VI, VII, VIII, IX, X, XI, XIV, XV, XIX, and Hem), and the mixture was carefully stirred. The experiment was performed in two replicas.
As controls served cells added with an equivalent amount of the solvent in which tested compounds were prepared, namely: water for compounds VII and X; an aqueous solution of DMSO for compounds V, VI, VIII, and IX; and DMSO for GrD, gramicidin S, Hem, XI, XIII, XIV, XV, and XIX. An additional control was an additive-free leukocyte suspension.
Cells were incubated with tested compounds for 3 h (37° C., 5% CO2, 100% humidity). Leukocyte death values were quantified using fluorescence microscopy. Staining with propidium iodide (it permeates only into dead cells nuclei) and Hoechst 33342 (it stains all nuclei) was used to recognize dead and living cells. Cells were incubated for 15 min in plates with propidium iodide and Hoechst 33342 (37° C., 5% CO2), and then the plates were placed under a microscope for analysis.
The dead cell fraction was derived from the fluorescence images of cells obtained in the blue (Hoechst 33342) and red (propidium iodide) spectral ranges using an Axio Observer (Zeiss, Germany) fluorescence microscope equipped with a 10× objective lens (Plan-Neofluar 10×/0.3). The following sets of fluorescence filters were used. For propidium iodide: a 530/585-nm bandpass excitation filter, a 600-nm cut-off dichroic minor, and a 615-nm longpass barrier filter for analysis. For Hoechst 33342: a 359/372-nm bandpass excitation filter, a 395-nm cut-off dichroic mirror, and a 397-nm longpass barrier filter for analysis.
A digital camera recorded three types of cell images: (a) an image in the transmitted white light; (b) a blue fluorescence image obtained with UV excitation, and (c) a red fluorescence image obtained with green light excitation. At least four fields of view were photographed per well in various regions of a well.

[5] = Solubility of tested agents (water / DMSO); conditions: water or DMSO
Candida albicans No. 927 = experiment: Antifungal activity, culture growth with pH indicator; format: cell-based; design: key to Test culture growth at various dilutions of the agent: (−) No growth; the indicator is blue; (±) Weak growth; the indicator is yellow, but the precipitate of grown cells looks as a diffuse spot; (+) Strong growth; the indicator is yellow, and the cell precipitate looks as a compact spot
Description: The subjects of action were Cryptococcus neoformans No. 3465 museum strain cells and Candida albicans No. 927 museum strain cells grown for one day on a glucose-peptone-yeast medium at 32° C. The reference compounds were the following antimycotics: pimafucin, amphotericin, and fluconazole.
Experiments were carried out on round-bottomed 96-well plates (Lenmedpolimer) in two replicas. To the first column (0), added was 10 μL of the stock solution of a water-soluble agent with concentrations of 10^−2 to 10^−3 mol/L; to the second column, added was also the same 10 μL plus 10 μL of the solvent corresponding to the given compound, suspended, 10 μL was transferred to the next well, and so on to the 8th well of the row. Stock solutions of water-insoluble compounds of general formula (I) (compounds V, VIII, XII, XIII, XIV, and hemin) were prepared in DMSO and were diluted with DMSO and the medium. DMSO concentrations in the reaction mixture in a well were ≦5%.
Then, to every well added was 190 μL of a Cr. neoformans cell culture suspension in a synthetic nutritional medium (so that the final cell concentration was approximately 10^3 CFU/mL), this medium containing Bromocresol Blue as a pH-indicator (pH: 5.5; indicator color: blue). As pH reduced to 4.5, the indicator in the culture changed its color to yellow, thereby indicating fungal cell growth. The synthetic medium comprised the following components: salts, amino acids, microelements, vitamins, an antibiotic, and glucose (30 components altogether) [Yarrow, D., “Methods for the Isolation, Maintenance and Identification of Yeasts,” in: The Yeasts. A Taxonomic Study, Ed. by Kurtsman, C. P, and Fell, M., Elsevier, 1998, pp. 77-100]. After being inoculated with a Cr. neoformans cell suspension, the plate was incubated at 32° C. for 1 h with stirring, then transferred to a stationary thermostat and incubated for two and five days at 27° C. After being inoculated with a C. albicans cell suspension, the plates were incubated for 1 h at 32° C. with stirring, then transferred to a stationary thermostat and incubated for one and four days at 27° C.

| Molecule | MBC [1] | MIC [1] [µM] | MBC [2] | MIC [2] [µM] | MBC [3] [µM] | MIC [3] [µM] | MBC [4] | MIC [4] [µM] | Death of leukocytes in the presence of 1 mM of compound (human leukocytes) [%] | toxic effect on human blood leukocytes (in words) (human leukocytes) | concentration at which a weak toxic effect on leukocytes appears (human leukocytes) [µM] | solubility (in words) [5] | Test culture growth at various dilutions of the agent (Candida albicans No. 927; dilution 0: 1 × 10^−4 M) | Test culture growth at various dilutions of the agent (Candida albicans No. 927; dilution : 2 of 1 × 10^−4 M) | Test culture growth at various dilutions of the agent (Candida albicans No. 927; dilution : 4 of 1 × 10^−4 M) | Test culture growth at various dilutions of the agent (Candida albicans No. 927; dilution : 8 of 1 × 10^−4 M) | Test culture growth at various dilutions of the agent (Candida albicans No. 927; dilution : 16 of 1 × 10^−4 M) | Test culture growth at various dilutions of the agent (Candida albicans No. 927; dilution : 32 of 1 × 10^−4 M) | Test culture growth at various dilutions of the agent (Candida albicans No. 927; dilution : 64 of 1 × 10^−4 M) |
| --- | --- | --- | --- | --- | --- | --- | --- | --- | --- | --- | --- | --- | --- | --- | --- | --- | --- | --- | --- |
| 6(7)-Mono(Arg-Gly-Asp)-Protohemin IX [Compound XI] | 25 ± 7 µM | 12.5 ± 4 | Not reached | 100 | 200 | 50 | Not reached | 12.5 | 8.6 ± 0.4 | fully due to the toxic effect of the solvent | – | – | – | – | – | – | – | – | – |
| C=CC1=C(C)c2cc3[n-]c(cc4nc(cc5[n-]c(cc1n2)c(C)c5CCC(=O)NCCc1c[nH]cn1)C(CCC(=O)NCCc1c[nH]cn1)=C4C)c(C)c3C=C.[Cl-].[Fe+3] [Compound XIX, 6,7-bis-Histaminyl-Protohemin IX] | Not reached | 100 ± 25 | Not reached | 200 | 25 | 25 | Not reached | 200 | 13 ± 1 | – | ~1000 | – | – | – | – | – | – | – | – |
| C=CC1=C(C)c2cc3[n-]c(cc4nc(cc5[n-]c(cc1n2)c(C)c5CCC(=O)NCC(=O)OC)C(CCC(=O)NCC(=O)OC)=C4C)c(C)c3C=C.[Cl-].[Fe+3] [Compound XV, 6,7-Bis(N^α-Glycyl Methyl Ester)-Protohemin IX] | 25 ± 7 µM | 12.5 ± 4 | – | – | 6.5 | 1.6 | – | – | 13 ± 1 | – | ~1000 | DMSO-soluble | – | – | – | – | – | – | – |
| C=CC1=C(C)c2cc3[n-]c(cc4nc(cc5[n-]c(cc1n2)c(C)c5CCC(=O)NC(CO)CO)C(CCC(=O)NC(CO)CO)=C4C)c(C)c3C=C.[Cl-].[Fe+3] [Compound XVI, Protohemin IX 6,7-bis-N-(1,3-Dihydroxypropan-2-yl)amide] | >200 µM | >200 | >200 µM | >200 | >200 | >200 | >200 µM | >200 | – | – | – | – | – | – | – | – | – | – | – |
| C=CC1=C(C)c2cc3[n-]c(cc4nc(cc5[n-]c(cc1n2)c(C)c5CCC(=O)NCC(O)CO)C(CCC(=O)NCC(O)CO)=C4C)c(C)c3C=C.[Cl-].[Fe+3] (stereo not shown) [Compound XVII, Protohemin IX 6,7-bis-N-(2,3-Dihydroxypropyl)amide] | >200 µM | >200 | >200 µM | >200 | >200 | >200 | >200 µM | >200 | – | – | – | – | – | – | – | – | – | – | – |
| C=CC1=C(C)c2cc3[n-]c(cc4nc(cc5[n-]c(cc1n2)c(C)c5CCC(=O)NCCC(=O)NCCc1c[nH]cn1)C(CCC(=O)NCCC(=O)NCCc1c[nH]cn1)=C4C)c(C)c3C=C.[Cl-].[Fe+3] [IX] | 100 ± 25 µM | 50 ± 13 | >400^3 μM | 200 | 25 | – | 400 µM | 100 | 3.1 ± 0.3 | did not cause the death | – | – | – | – | – | – | – | – | – |
| Protohemin IX 6(7)-Mono[Cyclo(Orn-Leu-D-Phe-Pro-Val)2])amide [Compound XIII] | – | – | – | – | – | – | – | – | 14 ± 2 | – | – | water-insoluble | ± | ± | + | + | + | + | + |
